Reference: patent publication US11629171B2, “Beta-hairpin peptidomimetics” (POLYPHOR AG, priority 2017, dated 2023)
In brackets after ≈: the same amount, converted by molar mass. Where a SMILES comes first, the peptide text is derived from it. Bridges are numbered along the chain shown (N, C = ends). Roman numbers before positions name the chains, in order. [ ]: non-standard residue; d: D form. The star is where a group is joined. Tle = CC(C)(C)[C@H](N)C(=O)O; Hiv = CC(C)[C@H](O)C(=O)O; dDab = NCC[C@@H](N)C(=O)O; hSer = N[C@@H](CCO)C(=O)O; Orn = NCCC[C@H](N)C(=O)O; Dab = NCC[C@H](N)C(=O)O; Dap = NC[C@H](N)C(=O)O; NHCH2CH2OH = OCCN*

Legend:
Type in all cases: cell-based
[1] = system: Acinetobacter baumannii 872842; settings: 872842
Method in brief: (§1)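 MIC in μg/mL, read as no visible growth after 18-20 hours at 35° C. Peptides were serially diluted two-fold in MH-II broth plus P-80 (0.002% final, v/v) and inoculated at about 10^6 CFU/mL following the CLSI broth microdilution standard.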

[2] = system: Acinetobacter baumannii DSM 30008; settings: DSM 30008
Method in brief: as §1

[3] = system: Enterobacter cloacae 848840; settings: 848840
Method in brief: as §1

Escherichia coli 926415 = settings: 926415
Method in brief: as §1

[4] = system: Escherichia coli ATCC 25922; settings: ATCC 25922
Method in brief: as §1

[5] = system: Klebsiella pneumoniae 968733; settings: 968733
Method in brief: as §1

[6] = system: Klebsiella pneumoniae SSI #3010; settings: SSI #3010
Method in brief: as §1

[7] = system: Pseudomonas aeruginosa ATCC 27853; settings: ATCC 27853
Method in brief: as §1

[8] = system: human red blood cells (hRBC); assay: Hemolysis; settings: red cells of human, 1 h, 200
Method in brief: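 Hemoglobin release from PBS-washed hRBC at 20% (v/v), incubated 1 h at 37° C with peptides at 200 μg/mL, is measured at 540 nm. Values are blank corrected and given as a fraction of Triton X-100 lysis × 100%.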

| MIC [1] | MIC [2] | MIC [3] | MIC (Escherichia coli 926415) | MIC [4] | MIC [5] | MIC [6] | MIC [7] | SMILES | Hemolysis at 200 μg/mL [8] |
| --- | --- | --- | --- | --- | --- | --- | --- | --- | --- |
| 4 µg/mL (≈ 1.72 µM) | 0.125 µg/mL (≈ 0.0539 µM) | 0.125 µg/mL (≈ 0.0539 µM) | 8 µg/mL (≈ 3.45 µM) | 0.125 µg/mL (≈ 0.0539 µM) | 8 µg/mL (≈ 3.45 µM) | 0.125 µg/mL (≈ 0.0539 µM) | 0.25 µg/mL (≈ 0.108 µM) | CC(=O)N[C@H](C(=O)N[C@H]1CCCNC(=O)[C@@H](CCN)NC(=O)[C@H](C(C)(C)C)NC(=O)[C@H](CO)NC(=O)[C@H](Cc2c[nH]c3ccccc23)NC(=O)[C@H](CCO)NC(=O)[C@@H](CCN)NC(=O)[C@H](CCC(=O)N[C@@H](CCN)C(=O)N[C@H](C(=O)N[C@@H](CN)C(=O)N[C@H]2CCNC(=O)[C@H]([C@@H](C)O)NC(=O)[C@H](CCN)NC(=O)[C@H](CCN)NC(=O)[C@H](CC(C)C)NC(=O)[C@@H](CC(C)C)NC(=O)[C@H](CCN)NC2=O)[C@@H](C)O)NC(=O)[C@H](CO)NC(=O)[C@H](Cc2ccc(O)cc2)NC1=O)C(C)C [Ex. 28] (I: Ac-V[Orn]YSE[dDab][hSer]WS[Tle][dDab] / II: [Dab]T[Dap][Dab][Dab][dL]L[Dab][Dab]T; lactam I:2-I:C, II:4-II:C; amide I:5-II:N) | <1% |
| 0.0625 µg/mL (≈ 0.0243 µM) | 0.03125 µg/mL (≈ 0.0122 µM) | 0.0625 µg/mL (≈ 0.0243 µM) | 0.125 µg/mL (≈ 0.0486 µM) | 0.03125 µg/mL (≈ 0.0122 µM) | 0.0625 µg/mL (≈ 0.0243 µM) | 0.0625 µg/mL (≈ 0.0243 µM) | 0.25 µg/mL (≈ 0.0972 µM) | CC(=O)N[C@H]1CSSC[C@@H](C(N)=O)NC(=O)[C@H](CO)NC(=O)[C@H](C)NC(=O)[C@H](C(C)(C)C)NC(=O)[C@H](CO)NC(=O)[C@H](Cc2c[nH]c3ccccc23)NC(=O)[C@H](CO)NC(=O)[C@@H](CCN)NC(=O)[C@H](CCC(=O)N[C@@H](CCN)C(=O)N[C@H](C(=O)N[C@@H](CN)C(=O)N[C@H]2CCNC(=O)[C@H]([C@@H](C)O)NC(=O)[C@H](CCN)NC(=O)[C@H](CCN)NC(=O)[C@H](CC(C)C)NC(=O)[C@@H](CC(C)C)NC(=O)[C@H](CCN)NC2=O)[C@@H](C)O)NC(=O)[C@H](CN)NC(=O)[C@H](Cc2ccc(O)cc2)NC(=O)[C@H]([C@@H](C)O)NC(=O)[C@H](C(C)C)NC1=O [Ex. 244] (I: Ac-CVTY[Dap]E[dDab]SWS[Tle]ASC-NH2 / II: [Dab]T[Dap][Dab][Dab][dL]L[Dab][Dab]T; disulfide I:1-I:14; amide I:6-II:N; lactam II:4-II:C) | 1% |
| 0.0625 µg/mL (≈ 0.0254 µM) | 0.0625 µg/mL (≈ 0.0254 µM) | 0.125 µg/mL (≈ 0.0509 µM) | 0.0625 µg/mL (≈ 0.0254 µM) | 0.0625 µg/mL (≈ 0.0254 µM) | 0.125 µg/mL (≈ 0.0509 µM) | 0.0625 µg/mL (≈ 0.0254 µM) | 0.125 µg/mL (≈ 0.0509 µM) | CC(C)C[C@@H]1NC(=O)[C@@H](CC(C)C)NC(=O)[C@H](CCN)NC(=O)[C@@H](NC(=O)[C@H](CCN)NC(=O)[C@@H](NC(=O)[C@H](CCN)NC(=O)CC[C@@H]2NC(=O)[C@H](CCN)NC(=O)[C@H](C(C)C)NC(=O)[C@@H](NC(=O)[C@@H](O)C(C)C)CSSC[C@@H](C(=O)N[C@@H](Cc3ccc(O)cc3)C(=O)NCCO)NC(=O)[C@H](C(C)(C)C)NC(=O)[C@H](CO)NC(=O)[C@H](Cc3c[nH]c4ccccc34)NC(=O)[C@H](CCO)NC(=O)[C@@H](CCN)NC2=O)[C@@H](C)O)CCNC(=O)[C@H]([C@@H](C)O)NC(=O)[C@H](CCN)NC(=O)[C@H](CCN)NC1=O [Ex. 69] (I: H-[Hiv]CV[Dab]E[dDab][hSer]WS[Tle]CY-NHCH2CH2OH / II: [Dab]T[Dab][Dab][Dab][dL]L[Dab][Dab]T; disulfide I:2-I:11; amide I:5-II:N; lactam II:4-II:C) | 2% |
